{
  "source": "patent US20020162128A1",
  "about": "“Non-human animal deficient in function of pituitary adenylate cyclase-activating polypeptide gene” (priority 2000, published 2002)",
  "type_in_all_cases": "in vivo, mouse",
  "key": {"[1]": {"tested_on": "PACAP−/− mice", "experiment": "Effect of haloperidol on locomotor hyperactivity in the open field", "conditions": "haloperidol 0.2 mg/kg intraperitoneally, 20 min before 90 min test, versus vehicle", "protocol": "(§1) Motor activity was quantified using an automated video-tracking system, the video image motion analyzer AXIS-90 (Neuroscience, Inc., Tokyo, Japan). A computer program was used to overlay grid lines defining 25 separate regions within a circular open field (60 cm in diameter, 30 cm deep, illuminated with white light, 100 lux). Paths taken by each mouse were stored permanently as x-y coordinate sequences, and parameters indicative of locomotor activity were assessed. Vertical activity (rearing and jumping) were also scored. In the haloperidol study, the drug was injected intraperitoneally 20 min prior to monitoring locomotor activity, which was measured for 90 min by another activity-monitoring system, Supermex (multi-channel system; Muromachi Kikai Co., Ltd., Tokyo, Japan). Subsequently, the same mice were tested for catalepsy in the bar test as previously described in Boulay, D., Depoortere, R., Oblin, A., Sanger, D. J., Schoemaker, H. & Perrault, G. (2000) Eur. J. Pharmacol. 391, 63-73.\n(§2) Effects of haloperidol on locomotor activity. (A) PACAP+/+and PACAP−/− mice (n =6-7) were injected intraperitoneally with 0.2 and 2 mg/kg haloperidol or vehicle (0.5% carboxymethyl cellulose sodium) and 20 min later placed in the open field for automated measurement of locomotor parameters over a 90 min test period. (B) Subsequently, each mouse was tested for catalepsy in the bar test. […]"}, "[2]": {"tested_on": "wild-type mice", "experiment": "Effect of haloperidol on locomotor activity in the open field", "conditions": "haloperidol 0.2 mg/kg intraperitoneally, 20 min before 90 min test, versus vehicle", "protocol": "as §1, §2"}, "[3]": {"tested_on": "PACAP−/− mice", "experiment": "Catalepsy in the bar test after haloperidol", "conditions": "haloperidol 0.2 and 2 mg/kg intraperitoneally; PACAP−/− mice compared with wild-type mice", "protocol": "as §1, §2"}},
  "data": [
    {"smiles": "O=C(CCCN1CCC(O)(c2ccc(Cl)cc2)CC1)c1ccc(F)cc1", "note": "[Haloperidol, haloperidol]", "values": [
      {"measurement": "reduction of hyperactivity (total locomotor activity)", "setting": "[1]", "result": "65±10", "unit": "% reduction"},
      {"measurement": "impairment of locomotor activity (total activity)", "setting": "[2]", "result": "43±21", "unit": "% reduction"},
      {"measurement": "cataleptogenic effect (bar test)", "setting": "[3]", "result": "quite similar to that in wild-type mice"}
    ]}
  ]
}
